# Measured values from US20030194409A1, “Conjugate heat shock protein-binding peptides” (priority 2002, published 2003).
# Like-named read-outs stand apart in the source and are kept apart here. Where a SMILES comes first, the peptide text is derived from it.
# Columns and labels:
# [1] = 17- versus 19-allylamino derivative of herbimycin A; cited from earlier work
# [2] = test system: OVA-peptide pulsed EL4 cells; assay: 51Cr release assay with effector cells from immunized mice; format: cell-based, C57BL/6 mice; details: mice immunized once or twice; OVA-primed EL-4 target cells
# Method: Preparation of hsp70 and/or peptide for use in immunization. Approximately 15 μg hsp70 and 12 μg OVA-BiP were mixed, on ice, to a final volume of 10 μL in Buffer Y (to produce a final concentration of 21.5 μM hsp70, 0.5 mM OVA-BiP, 20 mM HEPES pH 7.0, 150 mM KCl, 10 MM (NH4)2SO4, 2 mM MgCl2 and 2 mM MgADP, pH 7.0). The mixture was incubated for 30 minutes at 37° C. and was used for in vivo immunizations. Similar incubations were carried out with (i) 5 μl TiterMax adjuvant (Vaxcell, Norcross, Ga.) and 12 μg OVA-BiP (ii) 5 μl TiterMax and 5 μg OVA peptide or (iii) 12 μg OVA-BiP alone.
# Preparation of cells for chromium release assay. […]
# Chromium release assay. […] Supernatants were harvested and radioactivitiy released by cytotoxic activity was measured in a gamma counter. The percent specific lysis was calculated as 100×[(cpm release by CTL−cpm spontaneously released)/(cpm maximal release−cpm spontaneously released)]. Maximal release was determined by adding 1% NP-40 to lyse all cells. Spontaneous release of all target in the absence of effector cells (measured in a culture of target cells (in the absence of effector cells) maintained in parallel for the duration of the assay) was less than 20% of the maximal release.
# [3] = molecular target: T1, gp96 in the presence of herbimycin A (Mus musculus, UniProt P08113); assay: Affinity panning of phage display heptapeptide library on gp96 in the presence of herbimycin A; format: binding; details: TWEEN 20
# T1 construct: The mouse cDNA encoding mature gp96 (i.e., wherein the endoplasmic reticulum signal peptide has been removed) was incorporated into the pET 11 a expression vector; made in house; host or cells: Escherichia coli BL21 (pET11gp96)
# Method: Preparation of a gp96 expression vector. The mouse cDNA encoding mature gp96 (i.e., wherein the endoplasmic reticulum signal peptide has been removed) was incorporated into the pET 11 a expression vector (Novagen) as follows. Gp96 cDNA insert was prepared by polymerase chain reaction (PCR) of a pRc/CMV clone containing the cDNA using the following oligonucleotide primers: […]
# Expression of gp96. pET11gp96 was transformed into BL21 Escherichia coli cells, and plated on LB plates containing ampicillin (50 μg/ml). One of the resulting colonies was used to inoculate a 20 ml overnight culture of 2×TY medium containing ampicillin (150 μg/ml). The following day, the resulting culture was spun down and the harvested bacteria were resuspended in 1 ml of fresh medium. Two one liter cultures were then each inoculated with 0.5 ml of the harvested cells and allowed to grow at 37° C. until the optical density, measured at 600 nm, was 0.5. Then, IPTG was added to a concentration of 1 mM and the cells were cultured for another 3 hours before being harvested by centrifugation. The resulting cell pellet was resuspended in 20 ml of 50 mM HEPES pH 7.5, 50 mM KCl, 5 mM MgAcetate, 20% sucrose and 1 mM PMSF. Cell extracts were prepared by pressure shearing in a French Press. The lysates were then spun at 100,000×g for 1.5 hours and the supernatant, which constituted crude gp96 extract, was collected.
# Purification of gp96. The following steps were all performed at 4° C. A 12.5 cm×3.2 cm column of DE52 resin (Whatman) was equilibrated in a solution of 50 mM MOPS pH 7.4, 10 mM NaCl, 5 mM MgAcetate (hereafter, “Buffer A”). The crude gp96 extract was diluted 2-fold and immediately loaded onto the column at a flow rate of 2 ml/min. Elution from the column was achieved using a gradient of a solution of 50 mM MOPS pH 7.4, 1M NaCl, 5 mM MgAcetate (hereafter, “Buffer B”) from 0% to 100% Buffer B over 1000 ml. The elution profile was examined by subjecting fractions collected from the column to SDS-PAGE analysis. Fractions containing gp96 were pooled and diluted 2-fold with cold water, and were immediately run onto the next column (see below).
# A 10 cm×1 cm column of hydroxyapatite (BioRad) was washed with 100 ml 0.5 M K2HPO4, 50 mM KCl pH 7.4 and then equilibrated with 10 mM K2HPO4, 50 mM KCl pH 7.4. The pooled diluted fractions from the DE52 column were loaded onto this column at a flow rate of 1 ml/min. The gp96 protein was eluted in a gradient of 10-500 mM K2HPO4 over 800 ml. Fractions containing gp96 were pooled and loaded onto the phenylsepharose column described below.
# A 9 cm×3 cm column of phenylsepharose (Pharmacia) was equilibrated with 500 mM NaCl, 50 mM MOPS pH 7.4. The pooled fractions containing gp96 from the hydroxyapatite were loaded onto this column at 1 ml/min and the gp96 was eluted in a gradient of 500-0 mM NaCl over 800 ml. The gp96 containing fractions collected from the column were identified by SDS-PAGE, pooled, and concentrated.
# The gp96 was then loaded onto a Hi Load 26/60 Superdex-200 column (Pharmacia) equilibrated with 100 mM NaCl, 5 mM MgAcetate, 50 mM MOPS pH 7.5, 3 ml fractions were collected, and the fractions containing the most pure gp96 (as identified by SDS PAGE using a 12 percent reducing gel) and pooled. To the pooled fractions, glycerol was added to 10% (v/v), and then the fractions were concentrated to 21 mg/ml on a Centricon-50 concentrator (Amicon), frozen using liquid nitrogen, and stored at −80° C.
# Affinity panning. The Ph.D. Phage Display Library Kit (New England BioLabs, Beverly, Mass.), was used for affinity panning. For each panning experiment, a well of a 96-well polystyrene microtiter plate (each well having a 6 mm diameter) was filled with 150 μl of a solution of 200 μg/ml of gp96 in 0.1 M NaHCO3 pH 8.3. If herbimycin A was to be included in the experiment, 1 μl of 10 mg/ml herbimycin A (GIBCO) in DMSO was added to each well, corresponding to a 50-fold molar excess relative to gp96. […]
# [4] = molecular target: T1, gp96 in the presence of herbimycin A; details: expected frequency for comparison with % actual, cited from earlier work
# EG7 cells = assay: EG7 tumor cell challenge after immunization; format: in vivo, C57BL/6 mice; details: peptide alone, without TiterMax or hsp70, eight mice per group
# Method: C57BL/6 mice, 8-10 weeks old, were immunized intradermally with one of the following (eight mice in each group): (a)5 μl TiterMax and 5 μg OVA peptide; (b) 15 μg hsp70 and 5 μg OVA peptide; (c) 5 μl TiterMax and […] (OVA-BiP); (d) 15 μg hsp70 and 12 μg OVA-BiP; (e) control (four animals only in this group); (f) 5 μg OVA peptide; or (g) 12 μg OVA-BiP. The mice then were injected with 4×10^6 EG7 cells. Tumor size was evaluated over time by measuring two diameters, the greatest diameter and the diameter perpendicular to the greatest diameter, and then calculating the average diameter. The results are shown in FIGS. 8A-G (corresponding to groups a-g, as set forth above).
# [5] = Table XII, gp96 and herbimycin A, binding buffer without calcium: 20 mM HEPES pH 7.5, 100 mM KCl, 1 mM DTT, 1 mM MgAcetate, 42 phage-expressed peptides sequenced
# [6] = Table XIV, gp96 in the presence of herbimycin A, binding buffer with ATP: 20 mM HEPES pH 7.5, 100 mM KCl, 1 mM CaCl2, 1 mM MgAcetate, 1 mM ATP
# [7] = Table XVI, binding buffer with AMP-PNP instead of ATP: 20 mM HEPES pH 7.5, 100 mM KCl, 1 mM CaCl2, 1 mM MgAcetate, 1 mM AMP-PNP
# T1 sequence (P08113 22-802): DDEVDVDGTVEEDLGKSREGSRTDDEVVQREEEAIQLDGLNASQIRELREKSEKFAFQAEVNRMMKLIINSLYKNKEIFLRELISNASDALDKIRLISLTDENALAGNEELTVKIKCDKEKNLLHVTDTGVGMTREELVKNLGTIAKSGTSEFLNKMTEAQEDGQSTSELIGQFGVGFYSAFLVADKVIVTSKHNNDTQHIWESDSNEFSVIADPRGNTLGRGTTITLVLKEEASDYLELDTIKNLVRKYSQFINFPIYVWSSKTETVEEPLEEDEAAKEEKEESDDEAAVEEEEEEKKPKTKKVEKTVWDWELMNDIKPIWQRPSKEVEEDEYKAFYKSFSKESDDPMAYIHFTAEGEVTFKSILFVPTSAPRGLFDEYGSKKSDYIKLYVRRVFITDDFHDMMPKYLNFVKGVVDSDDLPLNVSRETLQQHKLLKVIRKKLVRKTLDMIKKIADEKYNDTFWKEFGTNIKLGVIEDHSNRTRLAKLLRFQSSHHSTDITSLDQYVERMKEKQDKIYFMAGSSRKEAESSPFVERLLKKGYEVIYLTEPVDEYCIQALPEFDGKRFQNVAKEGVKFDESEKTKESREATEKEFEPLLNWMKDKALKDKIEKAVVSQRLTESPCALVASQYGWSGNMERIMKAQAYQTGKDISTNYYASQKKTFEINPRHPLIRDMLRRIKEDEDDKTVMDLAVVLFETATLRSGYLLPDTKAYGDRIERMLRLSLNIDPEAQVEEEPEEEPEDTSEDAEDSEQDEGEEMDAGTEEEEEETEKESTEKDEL
Compound,"% actual (amino acid frequency in sequenced gp96-binding phage-expressed heptapeptides) [3, 5] [%]","% actual (amino acid frequency in sequenced gp96-binding phage-expressed heptapeptides) [3, 6] [%]","% actual (amino acid frequency in sequenced gp96-binding phage-expressed heptapeptides) [3, 7] [%]",% expected (amino acid frequency) ([4]; Table XII) [%],% expected (amino acid frequency) ([4]; Table XIV) [%],% expected (amino acid frequency) ([4]; Table XVI) [%],further results
17-allylamino herbimycin,,,,,,,activity [1]: more active than 19-allylamino herbimycin
CC[C@H](C)[C@H](NC(=O)[C@@H](NC(=O)[C@@H](N)CO)[C@@H](C)CC)C(=O)N[C@@H](CC(N)=O)C(=O)N[C@@H](Cc1ccccc1)C(=O)N[C@@H](CCC(=O)O)C(=O)N[C@@H](CCCCN)C(=O)N[C@@H](CC(C)C)C(=O)NCC(=O)N[C@@H](CO)C(=O)NCC(=O)N[C@@H](Cc1c[nH]cn1)C(=O)N[C@@H](Cc1c[nH]c2ccccc12)C(=O)N[C@@H](CC(=O)O)C(=O)N[C@@H](Cc1ccccc1)C(=O)N[C@@H](C)C(=O)N[C@@H](Cc1c[nH]c2ccccc12)C(=O)N1CCC[C@H]1C(=O)N[C@@H](Cc1c[nH]c2ccccc12)C(=O)O [OVA-BiP] (H-SIINFEKLGSGHWDFAWPW-OH),,,,,,,OVA-specific cytotoxic immune response [2]: significant anti-OVA immune response
N[C@@H](Cc1ccc(O)cc1)C(=O)O [Tyr],4.76,7.1,4.28,2.9,2.9,2.9,
CC(C)[C@H](N)C(=O)O [Val],4.08,5.3,8.5,4.3,4.3,4.3,
Ser Ile Ile Asn Phe Glu Lys Leu (SIINFEKL; printed: Ser Ile Ile Asn Phe Glu Lys Leu) [OVA peptide],,,,,,,tumor-free animals (EG7 cells): no animals were tumor-free
